The text below walks through data of ChEMBL document CHEMBL3286345, “Synthesis and biological activity of new arenediyne-linked isoxazolidines” (2014).

Calls of active or inactive are those of the source. No cut-off for these calls is given here.

Assay [1] relates to HT-29. The experiment in a line: Antiproliferative activity against human HT-29 cells at 100 uM after 72 hrs by MTT assay. Format: functional.
In assay [2] the test system is HT-29. The experiment in a line: Antiproliferative activity against human HT-29 cells at 100 uM after 48 hrs by MTT assay. Format: functional, cell-based.
Assay [3] has as its system HT-29. The experiment in a line: Antiproliferative activity against human HT-29 cells at 50 uM after 48 to 72 hrs by MTT assay. Format: functional, cell-based.
Assay [4] deals with HT-29. The experiment in a line: Antiproliferative activity against human HT-29 cells at 1 to 100 uM by MTT assay. It counts as functional, cell-based. To be noted: TDE = time-dependent effect.
For assay [5], the system named is HepG2. The experiment in a line: Antiproliferative activity against human HepG2 cells at 1 to 100 uM by MTT assay. To be noted: TDE = time-dependent effect. It counts as functional, cell-based.
The subject of assay [6] is SH-SY5Y. The experiment in a line: Antiproliferative activity against human SH-SY5Y cells at 1 to 100 uM by MTT assay. It counts as functional, cell-based. The conditions noted are these: TDE = time-dependent effect.
Assay [7] has as its system HT-29. The experiment in a line: Antiproliferative activity against human HT-29 cells after 24 to 72 hrs by MTT assay. It counts as functional, cell-based.
The subject of assay [8] is HepG2. The experiment in a line: Antiproliferative activity against human HepG2 cells after 24 to 72 hrs by MTT assay. It counts as functional, cell-based.
Assay [9] deals with SH-SY5Y. The experiment in a line: Antiproliferative activity against human SH-SY5Y cells after 24 to 72 hrs by MTT assay. Format: functional, cell-based.
For assay [10], the system named is HT-29. The experiment in a line: Cytotoxicity against human HT-29 cells at 50 to 100 uM after 24 to 72 hrs by LDH release assay. It counts as functional, cell-based.
Assay [11] concerns HepG2. The experiment in a line: Cytotoxicity against human HepG2 cells at 50 to 100 uM after 24 to 72 hrs by LDH release assay. It counts as functional, cell-based.
For assay [12], the system named is SH-SY5Y. The experiment in a line: Cytotoxicity against human SH-SY5Y cells at 50 to 100 uM after 24 to 72 hrs by LDH release assay. Format: functional, cell-based.
The test system of assay [13] is HT-29. The experiment in a line: Cytotoxicity against human HT-29 cells assessed as cell death at 1 to 100 uM after 24 to 72 hrs by trypan blue dye exclusion assay. It counts as functional, cell-based.
Assay [14] has as its system HepG2. The experiment in a line: Cytotoxicity against human HepG2 cells assessed as cell death at 1 to 100 uM after 24 to 72 hrs by trypan blue dye exclusion assay. Format: functional, cell-based.
Assay [15] concerns SH-SY5Y. The experiment in a line: Cytotoxicity against human SH-SY5Y cells assessed as cell death at 1 to 100 uM after 24 to 72 hrs by trypan blue dye exclusion assay. Format: functional, cell-based.
For assay [16], the system named is HepG2. The experiment in a line: Antiproliferative activity against human HepG2 cells at 1 to 100 uM after 24 to 72 hrs by cell counting assay. It counts as functional, cell-based.
For assay [17], the system named is HT-29. The experiment in a line: Antiproliferative activity against human HT-29 cells at 1 to 100 uM after 24 to 72 hrs by cell counting assay. Format: functional, cell-based.
Assay [18] deals with SH-SY5Y. The experiment in a line: Antiproliferative activity against human SH-SY5Y cells at 1 to 100 uM after 24 to 72 hrs by cell counting assay. Format: functional, cell-based.
The test system of assay [19] is HT-29. The experiment in a line: Antiproliferative activity against human HT-29 cells at 1 to 100 uM after 24 to 72 hrs by MTT assay. Format: functional, cell-based.
Assay [20] has as its system HepG2. The experiment in a line: Antiproliferative activity against human HepG2 cells at 1 to 100 uM after 24 to 72 hrs by MTT assay. Format: functional, cell-based.
The test system of assay [21] is SH-SY5Y. The experiment in a line: Antiproliferative activity against human SH-SY5Y cells at 1 to 100 uM after 24 to 72 hrs by MTT assay. Format: functional, cell-based.
For assay [22], the system named is HT-29. The experiment in a line: Cytotoxicity against human HT-29 cells at 1 to 100 uM after 24 to 72 hrs by LDH release assay. It counts as functional, cell-based.
Assay [23] relates to HepG2. The experiment in a line: Cytotoxicity against human HepG2 cells at 1 to 100 uM after 24 to 72 hrs by LDH release assay. It counts as functional, cell-based.
Assay [24] relates to SH-SY5Y. The experiment in a line: Cytotoxicity against human SH-SY5Y cells at 1 to 100 uM after 24 to 72 hrs by LDH release assay. Format: functional, cell-based.
For assay [25], the system named is HT-29. The experiment in a line: Antiproliferative activity against human HT-29 cells at 50 to 100 uM after 48 to 72 hrs by MTT assay. Format: functional, cell-based.
In assay [26] the test system is HepG2. The experiment in a line: Antiproliferative activity against human HepG2 cells at 100 uM after 72 hrs by MTT assay. It counts as functional, cell-based.
Assay [27] relates to SH-SY5Y. The experiment in a line: Antiproliferative activity against human SH-SY5Y cells at 100 uM after 72 hrs by MTT assay. Format: functional, cell-based.

With `CN1O[C@@H]2COCC#Cc3ccccc3C#CCOC[C@@H]2[C@@H]1CO[Si](c1ccccc1)(c1ccccc1)C(C)(C)C` (racemic), the Activity was 63% in [1]; “tde” in [4]; “tde” in assay [5]; “tde” in [6]; “Dose-dependent effect” in [7]; “Dose-dependent effect” in assay [8]. For the same compound, the Activity entry in assay [9] is “Dose-dependent effect”. Besides, the outcome in [2], in [3], in [10], in assay [11], in assay [12] and in assay [13] was Active. Further, the result in [14], in assay [15], in assay [16], in assay [17] and in assay [18] was Active.

Turning to `CN1O[C@@H](OCC#Cc2ccccc2C#CCO)C[C@@H]1CO[Si](c1ccccc1)(c1ccccc1)C(C)(C)C` (racemic), the outcome in assay [19], in assay [20], in assay [21], in [22], in assay [23] and in assay [24] was inactive. Further, the result in assay [16], in assay [17] and in assay [18] was inactive.

Turning to `CN1O[C@H](OCC#Cc2ccccc2C#CCO)C[C@@H]1CO` (racemic), the result in assay [25], in assay [26], in assay [27], in [10], in [11] and in assay [12] was Active. Also, the result in [13], in assay [14], in assay [15], in assay [16], in [17] and in assay [18] was Active. In addition, the Activity result was “tde” in assay [4]; “tde” in assay [5]; “tde” in [6]; “Dose-dependent effect” in assay [7]; “Dose-dependent effect” in [8]; “Dose-dependent effect” in [9].

For `CN1O[C@H](OCC#Cc2ccccc2C#CCO)C[C@@H]1CO[Si](c1ccccc1)(c1ccccc1)C(C)(C)C` (racemic), the outcome in [19], in assay [20], in [21], in assay [22], in assay [23] and in assay [24] was inactive. Also, the outcome in [16], in assay [17] and in assay [18] was inactive.
